Test results published in patent US20100016352A1, “COMPOUNDS AND METHODS FOR TREATING ESTROGEN RECEPTOR-RELATED DISEASES” (priority 2008, published 2010).

What was measured:
[1] = system: Human Breast Cancer BCAP-37 Cells xenografts; experiment: In vivo efficacy in inhibiting growth of human breast cancer BCAP-37 cells xenografts in nude mice; settings: Mus musculus, Bcap37, po, 360 h; female nude mice, BCAP-37 xenograft, 35 mg/kg fed once every day for 15 days, tumor weight vs olive oil negative control; read-out: Inhibition rate of tumor growth (%)
Method: The In Vivo Efficacy in Inhibiting Growth of Human Breast Cancer BCAP-37 Cells Xenografts in Nude Mice Model
Nude mice with breast cancer xenografts are treated with the test compounds 5, 6, 8, 14, 22, 36 and 38 to test their effect on inhibiting tumor growth. Tumor tissues are taken from nude mice bearing BCAP-37 breast cancer and cut into small pieces. Several pieces of the tumor tissues are implanted into the armpit under the right front limb of female nude mice. After the implantation, the mice are fed with E2β solution once every day at the dosage of 7 μg per mouse for 6 days to stimulate tumor growth in the receiving mice. Starting on the seventh day, the mice are fed with the test compounds at the dosage of 35 mg/kg. Tamoxifen is used as a positive control. Olive oil is used as a negative control. The test compounds are prepared as an olive oil solution (20 mg/mL). The mice are given the test compounds and Tamoxifen at the dosage of 35 mg/kg or olive oil once every day for 15 days. Then the mice are sacrificed and the tumor tissues are dissected from the mice and weighed. The tumor growth inhibition rate is a percentage calculated using the formula: tumor growth inhibition rate=(average weight of the tumor in the negative control−average weight of the tumor treated with test compound)/average weight of the tumor in the negative control.

MCF7 cells = experiment: Cell apoptosis assay in ER-positive breast cancer MCF7 cells (cell number after treatment); format: cell-based, human; settings: 10 days
Description: Cell Apoptosis Assay in ER-Positive Breast Cancer MCF7 Cells
MCF7 cell line is a breast cancer cell line that strongly expresses ER-α66, ER-α46 and ER-α36 (Relevance of breast cancer cell lines as models for breast tumours: an update. Marc Lacroix, Guy Leclercq, Breast Cancer Research and Treatment (2004) 83, 249-289; Wang et al., Proc. Natl. Acad. Sci. U.S.A. 103:9063-9068 (2006)). MCF7 cells obtained from ATCC are maintained in DMEM/F12 medium (Invitrogen) supplemented with 10% fetal calf serum at 37° C. in a 5% CO2 atmosphere. The MCF7 cells are treated with the test compounds 6, 8, 14, 22, 27, 29, 30, 31, 36 and 38 at concentrations from 1 μM to 25 μM to test the effect of these compounds on MCF7 cell growth for 10 days. The control assay is conducted with MCF7 cells under the same assay conditions except that no test compound is added. Treated cells are examined under a Nikon TS100 inverted microscope and photographed for morphological changes.

[2] = MCF-7, tested compound concentration 1 μM
[3] = MCF-7, tested compound concentration 5 μM
[4] = MCF-7, tested compound concentration 10 μM
[5] = MCF-7, tested compound concentration 15 μM
[6] = MCF-7, tested compound concentration 25 μM

| SMILES | inhibition in vivo at 35 mg/kg [1] | Cell Number (×10^4) (MCF7 cells; [2]) | Cell Number (×10^4) (MCF7 cells; [3]) | Cell Number (×10^4) (MCF7 cells; [4]) | Cell Number (×10^4) (MCF7 cells; [5]) | Cell Number (×10^4) (MCF7 cells; [6]) |
| --- | --- | --- | --- | --- | --- | --- |
| COc1ccc(-c2oc3c(CC=C(C)C)c(O)cc(O)c3c(=O)c2OC)cc1OC [Compound 5, 5,7-dihydroxy-3-methoxy-2-(3,4-dimethoxyphenyl)-8-(3-methylbut-2-enyl)-4H-chromen-4-one] | 26% |  |  |  |  |  |
| COc1ccc(-c2oc3c(CCC(C)(C)O)c(O)cc(O)c3c(=O)c2OC)cc1OC [Compound 6, 5,7-dihydroxy-8-(3-hydroxy-3-methylbutyl)-3-methoxy-2-(3,4-dimethoxyphenyl)-4H-chromen-4-one] | 44% | 18.35 ×10^4 | 8.97 ×10^4 | 3.95 ×10^4 | 3.9 ×10^4 | 3.87 ×10^4 |
| COc1ccc(-c2oc3c(CCC(C)(C)N)c(O)cc(O)c3c(=O)c2O)cc1 [Compound 8, 8-(3-amino-3-methylbutyl)-3,5,7-trihydroxy-2-(4-methoxyphenyl)-4H-chromen-4-one] | 62% | 28.75 ×10^4 | 15.35 ×10^4 | 10.1 ×10^4 | 6.45 ×10^4 | 0.25 ×10^4 |
| COc1c(-c2ccc(Cl)cc2)oc2c(CC=C(C)C)c(O)cc(O)c2c1=O [Compound 14, 2-(4-chlorophenyl)-5,7-dihydroxy-3-methoxy-8-(3-methylbut-2-enyl)-4H-chromen-4-one] | 37% | 30.05 ×10^4 | 14.54 ×10^4 | 2.51 ×10^4 | 0 ×10^4 | 0 ×10^4 |
| CC(C)=CCc1c(O)cc(O)c2c(=O)cc(-c3ccc(Cl)cc3)oc12 [Compound 22, 2-(4-chlorophenyl)-5,7-dihydroxy-8-(3-methylbut-2-enyl)-4H-chromen-4-one] | 66% | 39.0 ×10^4 | 21.6 ×10^4 | 15.6 ×10^4 | 4.2 ×10^4 | 0.6 ×10^4 |
| COc1ccc(-c2cc(=O)c3c(O)cc(O)c(CC=C(C)C)c3o2)cc1Cl [Compound 27, 2-(3-chloro-4-methoxyphenyl)-5,7-dihydroxy-8-(3-methylbut-2-enyl)-4H-chromen-4-one] |  | 59.4 ×10^4 | 45.2 ×10^4 | 5.4 ×10^4 | 1.05 ×10^4 | 0 ×10^4 |
| CC(C)=CCc1c(O)ccc2c(=O)cc(-c3ccc(C(F)(F)F)cc3)oc12 [Compound 29, 2-(4-(trifluoromethyl)phenyl)-7-hydroxy-8-(3-methylbut-2-enyl)-4H-chromen-4-one] |  | 27.9 ×10^4 | 30.1 ×10^4 | 24.3 ×10^4 | 23.4 ×10^4 | 12.3 ×10^4 |
| CC(C)=CCc1c(O)ccc2c(=O)cc(-c3ccc(C)cc3)oc12 [Compound 30, 7-hydroxy-8-(3-methylbut-2-enyl)-2-(4-methylphenyl)-4H-chromen-4-one] |  | 21.1 ×10^4 | 10.8 ×10^4 | 5.8 ×10^4 | 3.6 ×10^4 | 1.5 ×10^4 |
| CC(C)=CCc1c(O)ccc2c(=O)cc(-c3ccc(F)cc3)oc12 [Compound 31, 2-(4-fluorophenyl)-7-hydroxy-8-(3-methylbut-2-enyl)-4H-chromen-4-one] |  | 24.0 ×10^4 | 25.5 ×10^4 | 27.25 ×10^4 | 9.6 ×10^4 | 7.5 ×10^4 |
| CC(C)=CCc1c(O)ccc2c(=O)cc(-c3ccncc3)oc12 [Compound 36, 7-hydroxy-8-(3-methylbut-2-enyl)-2-(pyridin-4-yl)-4H-chromen-4-one] | 56% | 25.6 ×10^4 | 14.8 ×10^4 | 10.65 ×10^4 | 3.65 ×10^4 | 1.4 ×10^4 |
| CC(C)=CCc1c(O)ccc2c(=O)cc(-c3cccnc3)oc12 [Compound 38, 7-hydroxy-8-(3-methylbut-2-enyl)-2-(pyridin-3-yl)-4H-chromen-4-one] | 24% | 27.8 ×10^4 | 19.66 ×10^4 | 13.8 ×10^4 | 10.1 ×10^4 | 2.6 ×10^4 |
| CC/C(=C(\c1ccccc1)c1ccc(OCCN(C)C)cc1)c1ccccc1 [Tamoxifen, reference compound] | 40 to 50% |  |  |  |  |  |
